This is an account of results in PMC6149995 (2017).

The subject of test [1] is FmycT (DNA, G4) TTGAGGGTGGGTAGGGTGGGTAA
The test can be described thus: FRET melting. The following applies: 1 mM K+, 99 mM Li+; 10 mM lithium cacodylate pH 7.2; 1 µM ligand, 0.2 µM DNA; limit stated for all other cases.

Test [2] deals with ds26 (DNA, duplex) CAATCGGATCGAATTCGATCCGATTG
Briefly: fluorescence titration. The conditions noted are these: K+ buffer; insignificant fluorescence reduction, fit unsuccessful; 0.5 µM ligand.

Test [3] has as its system 22AG (DNA, G4) AGGGTTAGGGTTAGGGTTAGGG
The test can be described thus: circular dichroism titration. The following applies: 10 mM lithium cacodylate pH 7.2, 21 °C, 3 µM DNA. A general note: CD spectra are sensitive to the conformation of chiral molecules.

Test [4] has the same test system. Briefly: fluorescence titration (ligand quenching, Hill fit). The conditions noted are these: 10 mM lithium cacodylate pH 7.2, r.t., 0.5 µM ligand, DNA titrated.
In test [5] the test system is Myc2345-Pu22 (DNA, G4) TGAGGGTGGGTAGGGTGGGTAA
The test is described as above. The conditions noted are these: 100 mM K+; 10 mM lithium cacodylate pH 7.2, r.t., 0.5 µM ligand, DNA titrated.

Test [6] relates to F21T (DNA, G4) GGGTTAGGGTTAGGGTTAGGG
Briefly: FRET melting. The conditions noted are these: 90 mM Li+, 10 mM lithium cacodylate pH 7.2, 1 µM ligand, 0.2 µM DNA, limit stated for all other cases.

The mark [7] stands for this setting: 100 mM K+, 0-5 equiv ligand, conversion to antiparallel.
Setting [8] is: 100 mM Na+, slightly reduced helicity, antiparallel kept.

Consider `c1ccc(-c2cnc(-c3cccc(-c4cnc(-c5cccc(-c6cnc(-c7ccccn7)o6)n5)o4)n3)o2)nc1`, for which the ΔTm – broadly, the shift of the melting midpoint relative to a reference – in test [1] is below 3 °C. The figures for the binding entry in test [2], in test [3] (setting [7]) and in test [3] (setting [8]) were “no”, “yes” and “yes”, respectively. For the same molecule, the KD result is given as “(5.0 ± 0.3) × 10^−7 M^−1” in test [4] (100 mM K+), “(0.6 ± 0.0) × 10^−7 M^−1” in test [4] (100 mM Na+) and “(1.9 ± 0.1) × 10^−7 M^−1” in test [5].
For `c1ccc(-c2cnc(-c3cccc(-c4cnc(-c5cccc(-c6cnco6)n5)o4)n3)o2)nc1`, the ΔTm in test [1] is below 3 °C. The binding result in test [2] was “no”; in test [3] (setting [7]) it was “yes”; in test [3] (setting [8]), “yes”. Moreover, the results for the KD result in test [4] (100 mM K+), in test [4] (100 mM Na+) and in test [5] were “(2.2 ± 0.1) × 10^−7 M^−1”, “(0.8 ± 0.1) × 10^−7 M^−1” and “(1.7 ± 0.1) × 10^−7 M^−1”, respectively.
As to `c1ccc(-c2cnc(-c3cccc(-c4cnc(-c5ccccn5)o4)n3)o2)nc1`, the shift in melting temperature (ΔTm) in test [6] (10 mM K+), in test [6] (10 mM Na+) and in test [1] was below 3 °C throughout. The binding entry in test [2] is on record as “no”; in test [3] (100 mM K+, needs more equivalents to rearrange), “yes”; in test [3] (setting [8]) it was “yes”. Moreover, the KD result in test [4] (100 mM K+) was “(3.2 ± 0.1) × 10^−7 M^−1”; in test [4] (100 mM Na+), “(7.2 ± 0.8) × 10^−7 M^−1”; in test [5] it was “(4.8 ± 0.3) × 10^−7 M^−1”.
